Assay results taken from US11376234B2, “Ammonia metabolism promoter” (Kao Corporation, priority 2018, dated 2022).
Marks after values point to notes of the source that are not given here.

Columns and labels:
[1] = tested on: primary cultured hepatocytes; experiment: Urea production of hepatocytes with citrulline and arginine (Reference Example); assay type: cell-based; conditions: 5 mM ammonium chloride, 24 hours; Arg+Cit 0.5 mM each, Cit 1 mM; vs control
Experimental: Cells were recovered from the liver of each mouse and dead cells were removed, in the same procedure as in Example 1. Thereafter, cells were suspended in a DMEM medium, seeded at 10^5 cells/well in a 24-well plate, and cultured.
The cells 24 hours after seeding were washed twice with PBS. Thereafter, the medium was replaced with an FBS, arginine, leucine free DMEM medium (D9443, Sigma), and 5 mM of ammonium chloride (control), ammonium chloride+0.5 mM of L-arginine+0.5 mM of L-citrulline (Arg+Cit), or ammonium chloride+1 mM of L-citrulline (Cit) was added thereto. The culture supernatant was collected 24 hours later, and the urea contained therein was quantitatively determined with QuantiChrom Urea Assay Kit (BioAssay Systems).

primary hepatocytes = experiment: Amount of change in ammonia in culture medium of primary hepatocytes (Example 2); assay type: cell-based, mouse; conditions: for Ammonia change amount in culture medium, Increasing rate relative to control (%): 5 mM ammonium chloride, 24 hours, control = 100; for amount of change in ammonia in the culture medium relative to the control (in words): Dunnett's test, n=4
Experimental: For cells, a hepatocyte culture kit (derived from a 10-week-old male Balb/c mouse, 24 wells, 1×10^5 cells/well, Cosmo Bio) was used. A final concentration of 5 mM of ammonium chloride (015-02991, Wako) and 1.4 μM or 4.2 μM of the following catechins (EGC, Cg or ECg) were added to a medium containing high glucose DMEM (31053028, Gibco) containing GlutaMAX (35050-061, Gibco), penicillin/streptomycin (168-23191, Wako) and ascorbic acid (014-04801, Wako), and the cells were cultured therein: EGC (NH020203, Nagara Science Co., Ltd.); Cg (NH 021302, Nagara Science Co., Ltd.); and ECg (NH 020302, Nagara Science Co., Ltd.). Cells cultured in a medium without any added catechins were used as a control. The culture supernatant was collected 24 hours later, and the ammonia contained therein was quantitatively determined using an ammonia assay kit (Abcam). The decrement in the ammonia amount in the culture medium 24 hour after addition of ammonium chloride and catechins relative to the ammonia amount at the time of addition was defined as an amount of change in ammonia in the culture medium.
Each value in Table 1 represents the increasing rate of the amount of change in ammonia relative to that of the control. The statistical processing was performed by using multigroup comparison by Dunnett's test for n=4 per group (**: p <0.001, *: p<0.05).

Row | Molecule | amount of urea production by hepatocytes [1] | Ammonia change amount in culture medium, Increasing rate relative to control (%) (primary hepatocytes; 4.2 μM) | Ammonia change amount in culture medium, Increasing rate relative to control (%) (primary hepatocytes; 1.4 μM) | amount of change in ammonia in the culture medium relative to the control (in words) (primary hepatocytes; 4.2 μM)
1 | NC(=O)NCCC[C@H](N)C(=O)O [Cit, L-citrulline] | significantly increased | – | – | –
2 | O=C(O[C@@H]1Cc2c(O)cc(O)cc2O[C@@H]1c1ccc(O)c(O)c1)c1cc(O)c(O)c(O)c1 [ECg, epicatechin gallate] | – | 126% | – | –
3 | Oc1cc(O)c2c(c1)O[C@H](c1cc(O)c(O)c(O)c1)[C@H](O)C2 [EGC, epigallocatechin] | – | 186** % | 122% | significantly increases
4 | catechin gallate [Cg] | – | 174* % | – | significantly increases
